# According to ChEMBL document CHEMBL3392978 (Eur J Med Chem, 2015):
# What was measured:
# A-375 [1] = experiment: Growth inhibition of human A375 cells at 10 uM after 72 hrs by MTT assay; assay type: functional; conditions: A-375, 72 h, read-out: GI
# A-375 [2] = experiment: Cytotoxicity against human A375 cells assessed as reduction in cell viability after 72 hrs by MTT assay; assay type: functional, cell-based; conditions: A-375, 72 h
# SW480 [3] = experiment: Growth inhibition of human SW480 cells at 10 uM after 72 hrs by MTT assay; assay type: functional; conditions: SW480, 72 h, read-out: GI
# MCF7 [4] = experiment: Growth inhibition of human MCF7 cells at 10 uM after 72 hrs by MTT assay; assay type: functional; conditions: MCF7, 72 h, read-out: GI
# HepG2 [5] = experiment: Cytotoxicity against human HepG2 cells assessed as reduction in cell viability after 72 hrs by MTT assay; assay type: functional, cell-based; conditions: HepG2, 72 h
# HepG2 [6] = experiment: Growth inhibition of human HepG2 cells at 10 uM after 72 hrs by MTT assay; assay type: functional; conditions: HepG2, 72 h, read-out: GI
# MDA-MB-453 [7] = experiment: Growth inhibition of human MDA-MB-453 cells at 10 uM after 72 hrs by MTT assay; assay type: functional; conditions: MDA-MB-453, 72 h, read-out: GI
# NCI-H522 [8] = experiment: Growth inhibition of human NCI-H522 cells at 10 uM after 72 hrs by MTT assay; assay type: functional; conditions: NCI-H522, 72 h, read-out: GI
# [9] = target: Serine/threonine-protein kinase B-raf (Homo sapiens, UniProt P15056); experiment: Inhibition of BRAF (unknown origin) incubated for 15 mins by fluorescence based assay
# Chain of Serine/threonine-protein kinase B-raf (P15056 whole entry): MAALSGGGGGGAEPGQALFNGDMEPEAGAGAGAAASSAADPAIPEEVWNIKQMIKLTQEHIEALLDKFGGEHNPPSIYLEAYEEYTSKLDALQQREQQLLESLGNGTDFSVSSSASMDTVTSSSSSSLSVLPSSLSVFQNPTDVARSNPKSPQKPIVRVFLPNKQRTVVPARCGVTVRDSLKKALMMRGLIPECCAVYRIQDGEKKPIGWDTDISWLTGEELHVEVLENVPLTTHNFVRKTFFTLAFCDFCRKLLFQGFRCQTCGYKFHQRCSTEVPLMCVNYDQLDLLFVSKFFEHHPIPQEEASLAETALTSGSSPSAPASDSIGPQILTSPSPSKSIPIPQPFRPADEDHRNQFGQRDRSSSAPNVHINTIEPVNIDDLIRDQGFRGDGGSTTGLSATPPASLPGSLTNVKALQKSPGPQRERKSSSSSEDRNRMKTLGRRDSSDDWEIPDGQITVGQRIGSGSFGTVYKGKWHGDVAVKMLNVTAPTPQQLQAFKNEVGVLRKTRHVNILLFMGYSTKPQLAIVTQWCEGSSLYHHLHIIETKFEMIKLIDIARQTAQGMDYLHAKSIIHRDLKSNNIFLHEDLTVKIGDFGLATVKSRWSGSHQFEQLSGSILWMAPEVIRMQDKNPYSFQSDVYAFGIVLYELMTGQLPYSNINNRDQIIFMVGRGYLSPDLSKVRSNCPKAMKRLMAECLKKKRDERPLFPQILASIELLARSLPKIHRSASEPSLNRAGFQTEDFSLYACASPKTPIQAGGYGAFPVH
# [10] = target: Vascular endothelial growth factor receptor 2 (Homo sapiens, UniProt P35968); experiment: Inhibition of human recombinant VEGFR2 incubated for 1 hr using [gamma-32P]ATP by top count assay
# Chain of Vascular endothelial growth factor receptor 2 (P35968 whole entry): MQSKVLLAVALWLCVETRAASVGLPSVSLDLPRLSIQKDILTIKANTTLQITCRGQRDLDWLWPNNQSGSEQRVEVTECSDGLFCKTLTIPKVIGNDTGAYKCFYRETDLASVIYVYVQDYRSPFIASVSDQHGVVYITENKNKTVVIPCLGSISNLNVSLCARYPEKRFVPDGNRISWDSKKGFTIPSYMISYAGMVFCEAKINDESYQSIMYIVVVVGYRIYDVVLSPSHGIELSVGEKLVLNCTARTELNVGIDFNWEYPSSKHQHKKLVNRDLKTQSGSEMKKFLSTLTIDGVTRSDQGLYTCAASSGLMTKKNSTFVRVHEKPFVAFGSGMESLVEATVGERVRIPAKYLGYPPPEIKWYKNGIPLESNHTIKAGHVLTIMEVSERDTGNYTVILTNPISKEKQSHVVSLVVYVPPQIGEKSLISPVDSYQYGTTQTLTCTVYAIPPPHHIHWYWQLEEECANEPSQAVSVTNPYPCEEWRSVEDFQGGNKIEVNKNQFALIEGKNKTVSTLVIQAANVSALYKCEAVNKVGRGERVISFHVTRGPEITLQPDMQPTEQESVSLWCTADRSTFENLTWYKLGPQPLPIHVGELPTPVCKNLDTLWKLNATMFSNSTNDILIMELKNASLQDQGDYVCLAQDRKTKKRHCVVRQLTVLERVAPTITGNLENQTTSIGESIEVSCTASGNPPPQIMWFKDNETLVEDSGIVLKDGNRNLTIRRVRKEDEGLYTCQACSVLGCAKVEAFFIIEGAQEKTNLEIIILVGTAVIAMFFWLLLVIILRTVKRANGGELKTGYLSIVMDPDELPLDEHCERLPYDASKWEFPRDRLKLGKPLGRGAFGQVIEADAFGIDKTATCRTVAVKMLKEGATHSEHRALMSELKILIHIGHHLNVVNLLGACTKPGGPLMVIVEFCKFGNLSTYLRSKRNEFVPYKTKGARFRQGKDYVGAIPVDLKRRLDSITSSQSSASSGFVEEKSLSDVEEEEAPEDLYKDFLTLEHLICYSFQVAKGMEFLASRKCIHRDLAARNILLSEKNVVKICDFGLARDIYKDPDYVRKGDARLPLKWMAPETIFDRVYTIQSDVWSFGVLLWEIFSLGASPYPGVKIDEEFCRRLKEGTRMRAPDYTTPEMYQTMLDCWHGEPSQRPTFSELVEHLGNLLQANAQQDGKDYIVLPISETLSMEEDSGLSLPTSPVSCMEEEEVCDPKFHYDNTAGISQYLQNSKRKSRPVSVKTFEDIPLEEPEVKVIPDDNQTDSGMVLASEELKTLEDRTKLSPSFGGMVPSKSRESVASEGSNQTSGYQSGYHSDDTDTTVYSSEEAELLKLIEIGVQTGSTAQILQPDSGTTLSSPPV
# Mus musculus [11] = experiment: Toxicity in human A375 cells xenografted nude Ncr mouse assessed as body weight changes at 50 mg/kg, ig dosed once daily for 23 days; assay type: organism-based, A-375; design: dose 50 mg/kg, route intragastric; conditions: in vivo, po, 552 h
# MCF7 [12] = experiment: Cytotoxicity against human MCF7 cells assessed as reduction in cell viability after 72 hrs by MTT assay; assay type: functional, cell-based; conditions: MCF7, 72 h
# A-375 [13] = experiment: Antitumor activity against human A375 cells xenografted in nude Ncr mouse assessed as reduction in tumor growth at 50 mg/kg, ig dosed once daily for 23 days; assay type: functional; conditions: A-375, po, 552 h, route intragastric, read-out: TGI
# MDA-MB-453 [14] = experiment: Cytotoxicity against human MDA-MB-453 cells assessed as reduction in cell viability after 72 hrs by MTT assay; assay type: functional, cell-based; conditions: MDA-MB-453, 72 h
# Mus musculus [15] = experiment: Toxicity in human A375 cells xenografted nude Ncr mouse assessed as induction of adverse events at 50 mg/kg, ig dosed once daily for 23 days; assay type: organism-based, A-375; design: dose 50 mg/kg, route intragastric; conditions: in vivo, po, 552 h
# SW480 [16] = experiment: Cytotoxicity against human SW480 cells assessed as reduction in cell viability after 72 hrs by MTT assay; assay type: functional, cell-based; conditions: SW480, 72 h
# NCI-H522 [17] = experiment: Cytotoxicity against human NCI-H522 cells assessed as reduction in cell viability after 72 hrs by MTT assay; assay type: functional, cell-based; conditions: NCI-H522, 72 h
IC50 [9],IC50 [10],Compound,inhibition of growth at 10 µM (A-375 [1]),IC50 (A-375 [2]),inhibition of growth at 10 µM (SW480 [3]),inhibition of growth at 10 µM (MCF7 [4]),IC50 (HepG2 [5]),inhibition of growth at 10 µM (HepG2 [6]),inhibition of growth at 10 µM (MDA-MB-453 [7]),inhibition of growth at 10 µM (NCI-H522 [8]),Activity (Mus musculus [11]),IC50 (MCF7 [12]),inhibition in vivo at 50 mg/kg (A-375 [13]),IC50 (MDA-MB-453 [14]),Activity (Mus musculus [15]),IC50 (SW480 [16]),IC50 (NCI-H522 [17])
–,–,Cc1ccc(NC(=O)c2ccc(Cl)c(C(F)(F)F)c2)cc1C(=O)Nc1ccc(-c2ncc[nH]2)nc1,42.9%,14.4 µM,16.7%,30.5%,6.17 µM,47.9%,12.5%,-11.4%,–,–,–,–,–,–,–
–,–,Cc1cc(C(=O)Nc2ccc(C)c(C(=O)Nc3ccc(-c4ncc[nH]4)nc3)c2)ccc1Cl,37.3%,–,21.4%,36.2%,–,32%,27.7%,12.6%,–,–,–,–,–,–,–
–,–,Cc1ccc(NC(=O)c2ccc(C(F)(F)F)cc2)cc1C(=O)Nc1ccc(-c2ncc[nH]2)nc1,40.4%,–,28.1%,36.4%,–,25.7%,26%,16.5%,–,–,–,–,–,–,–
–,–,Cc1ccc(C(=O)Nc2ccc(C)c(C(=O)Nc3ccc(-c4ncc[nH]4)nc3)c2)cc1,37.6%,–,26.3%,36.5%,–,17.8%,16.5%,31.8%,–,–,–,–,–,–,–
–,–,Cc1ccc(NC(=O)c2cccc(F)c2)cc1C(=O)Nc1ccc(-c2ncc[nH]2)nc1,27.9%,–,10.4%,29.2%,–,2.1%,14.9%,8.5%,–,–,–,–,–,–,–
–,–,Cc1ccc(NC(=O)c2ccc(Cl)c(Cl)c2)cc1C(=O)Nc1ccc(-c2ncc[nH]2)nc1,30.6%,–,13.7%,33%,–,5.5%,24.4%,2%,–,–,–,–,–,–,–
2.47 µM,–,COc1cccc(C(=O)Nc2ccc(C)c(C(=O)Nc3ccc(-c4ncc[nH]4)nc3)c2)c1,28.2%,–,17.6%,27.9%,–,-4.9%,18%,8.7%,–,–,–,–,–,–,–
–,–,Cc1ccc(NC(=O)c2ccc(F)cc2)cc1C(=O)Nc1ccc(-c2ncc[nH]2)nc1,24.9%,–,10.1%,28.8%,–,25%,22%,6.3%,–,–,–,–,–,–,–
–,–,Cc1ccc(NC(=O)c2ccc(Cl)cc2)cc1C(=O)Nc1ccc(-c2ncc[nH]2)nc1,23.9%,–,17.7%,32.4%,–,12.1%,21.4%,6.4%,–,–,–,–,–,–,–
–,–,Cc1ccc(NC(=O)c2cccc([N+](=O)[O-])c2)cc1C(=O)Nc1ccc(-c2ncc[nH]2)nc1,17.6%,–,16.7%,34.9%,–,11.1%,22.3%,8.9%,–,–,–,–,–,–,–
40.4 µM,–,COc1ccc(C(=O)Nc2ccc(C)c(C(=O)Nc3ccc(-c4ncc[nH]4)nc3)c2)cc1,18.7%,–,26.5%,36%,–,18.7%,23.5%,27.1%,–,–,–,–,–,–,–
–,–,Cc1ccc(NC(=O)c2cccc(Br)c2)cc1C(=O)Nc1ccc(-c2ncc[nH]2)nc1,31.9%,–,24.4%,33.2%,–,6.4%,20.2%,10.4%,–,–,–,–,–,–,–
–,–,Cc1ccc(NC(=O)c2ccc(Br)cc2)cc1C(=O)Nc1ccc(-c2ncc[nH]2)nc1,30.1%,–,23.9%,31.9%,–,14.8%,18.9%,13.5%,–,–,–,–,–,–,–
0.65 µM,18.6 µM,O=C(Nc1ccc(Cl)c(C(=O)Nc2ccc(-c3ncc[nH]3)nc2)c1)c1ccc(Cl)c(C(F)(F)F)c1,62.6%,4.26 µM,38.8%,41.5%,13.8 µM,54.2%,49.3%,-3.2%,Non-toxic,15.3 µM,35.7%,8.35 µM,Non-toxic,–,–
–,–,Cc1cc(C(=O)Nc2ccc(Cl)c(C(=O)Nc3ccc(-c4ncc[nH]4)nc3)c2)ccc1Cl,43.9%,12.6 µM,65.7%,43.7%,11.5 µM,52.8%,51.1%,66.7%,–,16.3 µM,–,8.76 µM,–,3.57 µM,2.09 µM
–,–,O=C(Nc1ccc(Cl)c(C(=O)Nc2ccc(-c3ncc[nH]3)nc2)c1)c1ccc(Cl)c(Cl)c1,46.1%,9.39 µM,47.2%,35.5%,15.2 µM,57%,45.3%,-21.1%,–,–,–,11.4 µM,–,9.34 µM,–
0.531 µM,23.4 µM,O=C(Nc1ccc(Cl)c(C(F)(F)F)c1)c1ccc(Cl)c(C(=O)Nc2ccc(-c3ncc[nH]3)nc2)c1,64.4%,2.93 µM,33.4%,31.3%,3.21 µM,63.4%,52.9%,0.2%,Non-toxic,–,42.5%,7.96 µM,Non-toxic,–,–
–,–,O=C(Nc1ccc(Cl)c(Cl)c1)c1ccc(Cl)c(C(=O)Nc2ccc(-c3ncc[nH]3)nc2)c1,28.4%,–,13.4%,25%,3.97 µM,57%,36.3%,-28.6%,–,–,–,–,–,–,–
–,–,CNC(=O)c1cc(Oc2ccc(NC(=O)Nc3ccc(Cl)c(C(F)(F)F)c3)cc2)ccn1 [SORAFENIB],44.1%,16.2 µM,28.1%,23%,5.74 µM,59.9%,36.9%,39.4%,–,–,76.6%,–,–,–,19.3 µM
